# Results as given in patent US9669003B2, “Use of flavone and flavanone derivatives in preparation of sedative and hypnotic drugs” (priority 2012, dated 2017).
# Marks after values point to notes of the source that are not given here.
# Tested on: Kunming mice
# Experiment: Influence on autonomic activity of normal mice (ZIL-2 mice autonomic activity meter, counts within 10 min)
# Assay type: in vivo
# Details: intragastric, 25 mg/kg, 1 h after administration, x ± s, n = 10
# Description: (§1) 1.1 Animals for experiments: Kunming mice, weighting 18.9˜22.2 g for females, and 20.2˜23.0 g for males, licensed under SCXK-(Ji) 2007-0003, and provided by The experimental animal centre, Jilin University.
# (§2) 1.2 Chemicals for experiments: The flavone derivatives provided in Examples 1-41 and the flavanone derivatives provided in Examples 42-71 are all formulated with 0.5% sodium carboxymethyl cellulose as solutions with required concentrations.
# (§3) 1.3 Grouping of animals: 6420 animals are employed in the entire experiments and 2140 of the animals are randomly divided into 214 groups by gender, and the […] include: control group, low dosage group for each experimental drugs (25 mg/kg), medium dosage group for each experimental drugs (50 mg/kg), and high dosage group for each experimental drugs (100 mg/kg). Each group has 10 animals and either female or male constitutes half of the group. The groups are used in behavior observation and voluntary action observation. The other 4280 animals are randomly divided into 214 groups by gender respectively (the grouping way is the same with that described above). Each group has 20 animals and either female or male constitutes half of the group. In each group, 10 animals are used in hypnosis experimentations with pentobarbital sodium doses below the threshold, and the other 10 animals are used hypnosis experimentations with pentobarbital sodium doses at the threshold.
# 1.4 Experimental instrument and agents: ZIL-2 mice autonomic activity meter, production of Institute of Materia Medica of Chinese Academy of Medical Sciences; pentobarbital sodium, Lot: 100808, 25 g/bottle, Beijing Chemical Reagent Company equipment imported from Germany.
# 1.5.2 Influence on Autonomic Activity of Normal Mice
# After observing the general behavior, in 1 h, 2 h and 24 h after drug administration, respectively, ZIL-2 mice autonomic activity meter is put respectively. Number of autonomic activities of each group of mice is measured within 10 min. Results among groups are compared.
# (§4) Number of autonomic activities is detected by leneve Test for homogeneity of variance. If the homogeneity of variance is good (P>0.05), statistical analysis is performed with ANOVA. If ANOVA have statistical significance (P≦0.05), Dunnett's test for multiple comparisons analysis is performed. Number of animals of sleeping mice is applied of ANOVA. Incidence rate of animal asleep is applied of χ2 test. Sleep latency and sleep duration are recorded in min, averaged by group, represented by standard deviation, and undergo statistical analysis using ANOVA.
row,SMILES,Times of activities in 1 h after drug administration/10 min
1,"COc1ccc(-c2cc(=O)c3c(OC)c(OC)c(OC)cc3o2)cc1OC [Example 10, 5,6,7,3′,4′-penta methoxyl-flavone]",289.3 ± 50.1 /10 min
2,C=Cc1cc(C2CC(=O)c3cc(C(N)=O)c(C4CCSC4)c(Oc4ccccc4)c3O2)ccc1N (stereo not drawn) [Example 57],299.9 ± 58.2 /10 min
3,CCCc1cc(C2CC(=O)c3c(cc(O)cc3[N+](=O)[O-])O2)cc(-c2ccccc2)c1C1CCSC1 (stereo not drawn) [Example 51],227.8 ± 75.6 /10 min

# Same assay, conditions: intragastric, 25 mg/kg, 2 h after administration, x ± s, n = 10
row,SMILES,Times of activities in 2 h after drug administration/10 min
1,"COc1ccc(-c2cc(=O)c3c(OC)c(OC)c(OC)cc3o2)cc1OC [Example 10, 5,6,7,3′,4′-penta methoxyl-flavone]",275.6 ± 44.1 /10 min
2,C=Cc1cc(C2CC(=O)c3cc(C(N)=O)c(C4CCSC4)c(Oc4ccccc4)c3O2)ccc1N (stereo not drawn) [Example 57],288.1 ± 73.0 /10 min
3,CCCc1cc(C2CC(=O)c3c(cc(O)cc3[N+](=O)[O-])O2)cc(-c2ccccc2)c1C1CCSC1 (stereo not drawn) [Example 51],231.8 ± 79.8 /10 min

# Same assay, conditions: intragastric, 25 mg/kg, 24 h after administration, x ± s, n = 10
row,SMILES,Times of activities in 24 h after drug administration/10 min
1,"COc1ccc(-c2cc(=O)c3c(OC)c(OC)c(OC)cc3o2)cc1OC [Example 10, 5,6,7,3′,4′-penta methoxyl-flavone]",315.6 ± 76.3 /10 min
2,C=Cc1cc(C2CC(=O)c3cc(C(N)=O)c(C4CCSC4)c(Oc4ccccc4)c3O2)ccc1N (stereo not drawn) [Example 57],311.7 ± 81.2 /10 min
3,CCCc1cc(C2CC(=O)c3c(cc(O)cc3[N+](=O)[O-])O2)cc(-c2ccccc2)c1C1CCSC1 (stereo not drawn) [Example 51],321.6 ± 70.7 /10 min

# Same assay, conditions: intragastric, 50 mg/kg, 1 h after administration, x ± s, n = 10
row,SMILES,Times of activities in 1 h after drug administration/10 min
1,"COc1ccc(-c2cc(=O)c3c(OC)c(OC)c(OC)cc3o2)cc1OC [Example 10, 5,6,7,3′,4′-penta methoxyl-flavone]",257.2 ± 61.3 /10 min
2,C=Cc1cc(C2CC(=O)c3cc(C(N)=O)c(C4CCSC4)c(Oc4ccccc4)c3O2)ccc1N (stereo not drawn) [Example 57],245.4 ± 45.9 /10 min
3,CCCc1cc(C2CC(=O)c3c(cc(O)cc3[N+](=O)[O-])O2)cc(-c2ccccc2)c1C1CCSC1 (stereo not drawn) [Example 51],143.3 ± 64.7 /10 min

# Same assay, conditions: intragastric, 50 mg/kg, 2 h after administration, x ± s, n = 10
row,SMILES,Times of activities in 2 h after drug administration/10 min
1,"COc1ccc(-c2cc(=O)c3c(OC)c(OC)c(OC)cc3o2)cc1OC [Example 10, 5,6,7,3′,4′-penta methoxyl-flavone]",260.1 ± 58.2 /10 min
2,C=Cc1cc(C2CC(=O)c3cc(C(N)=O)c(C4CCSC4)c(Oc4ccccc4)c3O2)ccc1N (stereo not drawn) [Example 57],240.8 ± 63.24 /10 min
3,CCCc1cc(C2CC(=O)c3c(cc(O)cc3[N+](=O)[O-])O2)cc(-c2ccccc2)c1C1CCSC1 (stereo not drawn) [Example 51],130.7 ± 63.2 /10 min

# Same assay, conditions: intragastric, 50 mg/kg, 24 h after administration, x ± s, n = 10
row,SMILES,Times of activities in 24 h after drug administration/10 min
1,"COc1ccc(-c2cc(=O)c3c(OC)c(OC)c(OC)cc3o2)cc1OC [Example 10, 5,6,7,3′,4′-penta methoxyl-flavone]",325.3 ± 80.2 /10 min
2,C=Cc1cc(C2CC(=O)c3cc(C(N)=O)c(C4CCSC4)c(Oc4ccccc4)c3O2)ccc1N (stereo not drawn) [Example 57],315.9 ± 85.6 /10 min
3,CCCc1cc(C2CC(=O)c3c(cc(O)cc3[N+](=O)[O-])O2)cc(-c2ccccc2)c1C1CCSC1 (stereo not drawn) [Example 51],306.3 ± 68.2 /10 min

# Same assay, conditions: intragastric, 100 mg/kg, 1 h after administration, x ± s, n = 10
row,SMILES,Times of activities in 1 h after drug administration/10 min
1,"COc1ccc(-c2cc(=O)c3c(OC)c(OC)c(OC)cc3o2)cc1OC [Example 10, 5,6,7,3′,4′-penta methoxyl-flavone]",131.2 ± 30.8 /10 min
2,C=Cc1cc(C2CC(=O)c3cc(C(N)=O)c(C4CCSC4)c(Oc4ccccc4)c3O2)ccc1N (stereo not drawn) [Example 57],206.6 ± 44.2 /10 min
3,CCCc1cc(C2CC(=O)c3c(cc(O)cc3[N+](=O)[O-])O2)cc(-c2ccccc2)c1C1CCSC1 (stereo not drawn) [Example 51],115.8 ± 34.4 /10 min

# Same assay, conditions: intragastric, 100 mg/kg, 2 h after administration, x ± s, n = 10
row,SMILES,Times of activities in 2 h after drug administration/10 min
1,"COc1ccc(-c2cc(=O)c3c(OC)c(OC)c(OC)cc3o2)cc1OC [Example 10, 5,6,7,3′,4′-penta methoxyl-flavone]",231.6 ± 44.2 /10 min
2,C=Cc1cc(C2CC(=O)c3cc(C(N)=O)c(C4CCSC4)c(Oc4ccccc4)c3O2)ccc1N (stereo not drawn) [Example 57],199.6 ± 49.9 /10 min
3,CCCc1cc(C2CC(=O)c3c(cc(O)cc3[N+](=O)[O-])O2)cc(-c2ccccc2)c1C1CCSC1 (stereo not drawn) [Example 51],108.8 ± 39.4 /10 min

# Same assay, conditions: intragastric, 100 mg/kg, 24 h after administration, x ± s, n = 10
row,SMILES,Times of activities in 24 h after drug administration/10 min
1,"COc1ccc(-c2cc(=O)c3c(OC)c(OC)c(OC)cc3o2)cc1OC [Example 10, 5,6,7,3′,4′-penta methoxyl-flavone]",304.1 ± 82.5 /10 min
2,C=Cc1cc(C2CC(=O)c3cc(C(N)=O)c(C4CCSC4)c(Oc4ccccc4)c3O2)ccc1N (stereo not drawn) [Example 57],325.7 ± 82.6 /10 min
3,CCCc1cc(C2CC(=O)c3c(cc(O)cc3[N+](=O)[O-])O2)cc(-c2ccccc2)c1C1CCSC1 (stereo not drawn) [Example 51],300.4 ± 77.5 /10 min

# Tested on: Kunming mice
# Experiment: Influence on hypnosis effect with pentobarbital sodium doses at the threshold (50 mg/kg i.p.)
# Assay type: in vivo
# Details: 25 mg/kg intragastric single dose, pentobarbital sodium 50 mg/kg i.p. 60 min later, x ± s, n = 10
# Description: as §1, §2, §3
# 1.5.4 Influence on Hypnosis Effect with Mice Pentobarbital Sodium Doses at the Threshold
# (§5) The drug is intragastric administered in mice for single time, 2 animals of each group are given drug per round with the dosing interval of 40 min (±5 min). According to the administration round, in 60 min (±5 min) of each round after the drug administration, the animals were intraperitoneally injected 0.3% sodium pentobarbital 50 mg/kg, respectively. Time to fall asleep (sleep latency) and sleep duration of the animals were recorded within under sleep determination standard of loss of righting reflex more than 1 min.
# as §4
SMILES,duration of sleep [min],time to sleep [min]
"COc1ccc(-c2cc(=O)c3c(OC)c(OC)c(OC)cc3o2)cc1OC [Example 10, 5,6,7,3′,4′-penta methoxyl-flavone]",31.72 ± 21.73,5.42 ± 1.58
C=Cc1cc(C2CC(=O)c3cc(C(N)=O)c(C4CCSC4)c(Oc4ccccc4)c3O2)ccc1N (stereo not drawn) [Example 57],41.14 ± 23.51,4.61 ± 1.53
CCCc1cc(C2CC(=O)c3c(cc(O)cc3[N+](=O)[O-])O2)cc(-c2ccccc2)c1C1CCSC1 (stereo not drawn) [Example 51],49.88 ± 19.09,4.61 ± 1.74

# Same assay, conditions: 50 mg/kg intragastric single dose, pentobarbital sodium 50 mg/kg i.p. 60 min later, x ± s, n = 10
SMILES,duration of sleep [min],time to sleep [min]
"COc1ccc(-c2cc(=O)c3c(OC)c(OC)c(OC)cc3o2)cc1OC [Example 10, 5,6,7,3′,4′-penta methoxyl-flavone]",39.41 ± 21.74,3.90 ± 1.34
C=Cc1cc(C2CC(=O)c3cc(C(N)=O)c(C4CCSC4)c(Oc4ccccc4)c3O2)ccc1N (stereo not drawn) [Example 57],48.87 ± 19.80,4.13 ± 1.71
CCCc1cc(C2CC(=O)c3c(cc(O)cc3[N+](=O)[O-])O2)cc(-c2ccccc2)c1C1CCSC1 (stereo not drawn) [Example 51],57.61 ± 14.98,3.43 ± 1.99

# Same assay, conditions: 100 mg/kg intragastric single dose, pentobarbital sodium 50 mg/kg i.p. 60 min later, x ± s, n = 10
SMILES,duration of sleep [min],time to sleep [min]
"COc1ccc(-c2cc(=O)c3c(OC)c(OC)c(OC)cc3o2)cc1OC [Example 10, 5,6,7,3′,4′-penta methoxyl-flavone]",59.21 ± 22.41,3.81 ± 1.63
C=Cc1cc(C2CC(=O)c3cc(C(N)=O)c(C4CCSC4)c(Oc4ccccc4)c3O2)ccc1N (stereo not drawn) [Example 57],54.44 ± 21.81,3.43 ± 1.20
CCCc1cc(C2CC(=O)c3c(cc(O)cc3[N+](=O)[O-])O2)cc(-c2ccccc2)c1C1CCSC1 (stereo not drawn) [Example 51],82.27 ± 15.68,2.71 ± 1.72

# Tested on: Kunming mice
# Experiment: Influence on hypnosis effect with pentobarbital sodium doses below the threshold (25 mg/kg i.p.)
# Assay type: in vivo
# Details: test drug 25 mg/kg intragastric single dose, pentobarbital sodium 25 mg/kg i.p. 60 min later, sleep observed in 30 min, n = 10
# Description: as §1, §2, §3
# 1.5.3 Influence on Hypnosis Effect with Mice Pentobarbital Sodium Doses Below the Threshold
# as §5, with “25” for “50”, “Sleep condition” for “Time to fall asleep (sleep latency) and sleep duration”, “observed” for “recorded”, “30 min (under” for “under”, “min). After animals undergo loss of righting reflex, number of the animals is recorded, to calculate sleep percentage.” for “min.”
# as §4
SMILES,Number of sleeping animals,rate of sleeping (%)
"COc1ccc(-c2cc(=O)c3c(OC)c(OC)c(OC)cc3o2)cc1OC [Example 10, 5,6,7,3′,4′-penta methoxyl-flavone]",2,20%
C=Cc1cc(C2CC(=O)c3cc(C(N)=O)c(C4CCSC4)c(Oc4ccccc4)c3O2)ccc1N (stereo not drawn) [Example 57],4,40* %
CCCc1cc(C2CC(=O)c3c(cc(O)cc3[N+](=O)[O-])O2)cc(-c2ccccc2)c1C1CCSC1 (stereo not drawn) [Example 51],6,60** %

# Same assay, conditions: test drug 50 mg/kg intragastric single dose, pentobarbital sodium 25 mg/kg i.p. 60 min later, sleep observed in 30 min, n = 10
SMILES,Number of sleeping animals,rate of sleeping (%)
"COc1ccc(-c2cc(=O)c3c(OC)c(OC)c(OC)cc3o2)cc1OC [Example 10, 5,6,7,3′,4′-penta methoxyl-flavone]",5,50** %
C=Cc1cc(C2CC(=O)c3cc(C(N)=O)c(C4CCSC4)c(Oc4ccccc4)c3O2)ccc1N (stereo not drawn) [Example 57],6,60** %
CCCc1cc(C2CC(=O)c3c(cc(O)cc3[N+](=O)[O-])O2)cc(-c2ccccc2)c1C1CCSC1 (stereo not drawn) [Example 51],6,60** %

# Same assay, conditions: test drug 100 mg/kg intragastric single dose, pentobarbital sodium 25 mg/kg i.p. 60 min later, sleep observed in 30 min, n = 10
SMILES,Number of sleeping animals,rate of sleeping (%)
"COc1ccc(-c2cc(=O)c3c(OC)c(OC)c(OC)cc3o2)cc1OC [Example 10, 5,6,7,3′,4′-penta methoxyl-flavone]",6,60** %
C=Cc1cc(C2CC(=O)c3cc(C(N)=O)c(C4CCSC4)c(Oc4ccccc4)c3O2)ccc1N (stereo not drawn) [Example 57],7,70** %
CCCc1cc(C2CC(=O)c3c(cc(O)cc3[N+](=O)[O-])O2)cc(-c2ccccc2)c1C1CCSC1 (stereo not drawn) [Example 51],8,80*** %
